Measured values as given in patent EP1484330B1, “Triazole compouds suitable for treating disorders that respond to modulation of the dopamine D3 receptor” (Abbott GmbH & Co. KG, priority 2003, dated 2004).

Columns and labels:
[1] = Determination of the concentration of compounds in plasma and brain following oral dosing; format: in vivo, Male Sprague-Dawley rats; details: rats, 10 mg/kg orally by gavage; samples at 0.5, 3 and 8 hours; value Cmax
Method: Male Sprague-Dawley rats were used in this study (2 to 4 per experiment). The animals were fasted overnight prior to dosing and throughout the duration of the study but were permitted water ad libitum. Each rat received a 10 mg/kg (5 mL/kg) dose orally by gavage. At 0.5, 3 and 8 hours after drug administration, three animals were put under deep anesthesia using isoflurane and euthanized by bleeding (cardiac puncture) under deep isoflurane anesthesia. EDTA blood samples and brain tissue will be collected from each rat. Upon collection, the samples were promptly placed in an ice bath, and within 2 hours after sample collection, the blood was centrifuged at about 4°C. The resulting brain and plasma samples were placed in clean glass tubes and stored in a freezer until analysis. The plasma samples were assayed for parent compound using appropriate liquid chromatography - mass spectrometry procedures. The results are given in table 2 along with results obtained using the two reference compounds A and B, and illustrate the high brain concentrations attainable with the compounds of the invention.

[2] = molecular target: T1, human dopamine D3 receptors (Homo sapiens, UniProt P35462); test: Receptor binding study, displacement of [125I]-iodosulpride from HEK-293 cell membranes; details: for Ki: 0.1 nM [125I]-iodosulpride, HEK-293 membranes, 25°C, 60 minutes; for Selectivity [Ki(D2)/Ki(D3)]: ratio Ki(D2)/Ki(D3)
T1 construct: expressed in transfected cells; membranes used
Method: (§1) The substance to be tested was either dissolved in methanol/Chremophor® (BASF-AG) or in dimethyl sulfoxide and then diluted with water to the desired concentration.
(§2) Each assay mixture was run in triplicate.
The incubation buffer contained 50 mM tris, 120 mM NaCl, 5 mM KCI, 2 mM CaCl2, 2 mM MgCl2 and 0.1% bovine serum albumin, 10 µM quinolone and 0.1% ascorbic acid (prepared fresh daily). The buffer was adjusted to pH 7.4 with HCl.
(§3) After having been incubated at 25°C for 60 minutes, the assay mixtures were filtered through a Wathman GF/B glass fiber filter under vacuum using a cell collecting device. The filters were transferred to scintillation viols using a filter transfer system. After 4 ml of Ultima Gold® (Packard) have been added, the samples were shaken for one hour and the radioactivity was then counted in a Beta-Counter (Packard, Tricarb 2000 or 2200CA). The cpm values were converted into dpm using a standard quench series and the program belonging to the instrument.
(§4) The inhibition curves were analyzed by means of iterative nonlinear regression analysis using the Statistical Analysis System (SAS) which is similar to the "LIGAND" program described by Munson and Rodbard.

[3] = molecular target: T2, human dopamine D2L receptors (long isoform) (Homo sapiens, UniProt P14416); test: Receptor binding study, displacement of [125I] iodospiperone from HEK-293 cell membranes; details: 0.01 nM [125I] iodospiperone, HEK-293 membranes, 25°C, 60 minutes, read-out: Ki D2
T2 construct: expressed in transfected cells; membranes used
Method: as §1, §2
The incubation buffer contained 50 mM tris, 120 mM NaCl, 5 mM KCl, 2 mM CaCl2, 2 mM MgCl2 and 0.1% bovine serum albumin. The buffer was adjusted to pH 7.4 with HCl.
as §3, §4

T2 sequence (P14416 whole entry, canonical isoform): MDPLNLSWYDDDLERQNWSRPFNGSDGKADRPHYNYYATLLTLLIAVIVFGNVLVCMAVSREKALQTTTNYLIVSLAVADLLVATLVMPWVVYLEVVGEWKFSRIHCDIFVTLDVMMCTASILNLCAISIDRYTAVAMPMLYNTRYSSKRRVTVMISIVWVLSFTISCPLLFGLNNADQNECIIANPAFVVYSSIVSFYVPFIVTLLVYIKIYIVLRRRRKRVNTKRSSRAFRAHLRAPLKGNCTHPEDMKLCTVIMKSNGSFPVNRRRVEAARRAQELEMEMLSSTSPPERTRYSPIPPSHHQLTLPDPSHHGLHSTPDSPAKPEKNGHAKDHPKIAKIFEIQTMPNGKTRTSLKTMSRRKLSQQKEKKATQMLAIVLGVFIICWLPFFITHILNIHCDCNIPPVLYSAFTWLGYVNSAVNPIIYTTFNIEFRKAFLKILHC
T1 sequence (P35462 whole entry): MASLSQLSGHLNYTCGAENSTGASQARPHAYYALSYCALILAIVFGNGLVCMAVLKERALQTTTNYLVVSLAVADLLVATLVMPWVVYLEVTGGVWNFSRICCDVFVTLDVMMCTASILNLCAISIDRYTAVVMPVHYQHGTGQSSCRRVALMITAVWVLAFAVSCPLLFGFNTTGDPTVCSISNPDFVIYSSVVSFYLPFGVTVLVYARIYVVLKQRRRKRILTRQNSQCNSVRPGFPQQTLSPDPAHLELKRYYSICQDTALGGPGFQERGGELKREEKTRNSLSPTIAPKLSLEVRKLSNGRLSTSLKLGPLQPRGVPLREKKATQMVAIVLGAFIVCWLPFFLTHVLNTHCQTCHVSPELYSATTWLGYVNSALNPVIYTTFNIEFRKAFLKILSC

Row | Brain level [1] [ng/g] | Ki [2] [nM] | Selectivity [Ki(D2)/Ki(D3)] [2] | Ki [3] [nM] | Compound
1 | 559 | 1.1 | 160 | 176 | Cc1nnc(SCCCN2CCN(c3cc(C(C)(C)C)nc(C(C)(C)C)n3)CC2)n1C.Cl [Example 1, 2-tert-Butyl-4-{4-[3-(4-methyl-5-methyl-4H-[1,2,4]triazol-3-ylsulfanyl)-propyl]-piperazin-1-yl}-6-tert-butyl-pyrimidine hydrochloride]
2 | 1835 | 1.7 | 75 | 127 | Cl.Cn1cnnc1SCCCN1CCN(c2cc(C(C)(C)C)nc(C(C)(C)C)n2)CC1 [Example 2, 2-tert-Butyl-4-{4-[3-(4-methyl-4H-[1,2,4]triazol-3-ylsulfanyl)-propyl]-piperazin-1-yl}-6-tert-butyl-pyrimidine hydrochloride]
3 | 483 | 2.6 | 83 | 216 | CCCc1cc(N2CCN(CCCSc3nnc(C)n3C)CC2)nc(C(C)(C)C)n1.Cl [Example 4, 2-tert-Butyl-4-{4-[3-(4-methyl-5-methyl-4H-[1,2,4]triazol-3-ylsulfanyl)-propyl]-piperazin-1-yl}-6-propyl-pyrimidine hydrochloride]
4 | 904 | 3.7 | 84 | 311 | Cc1nnc(SCCCN2CCN(c3cc(C(F)(F)F)nc(C(C)(C)C)n3)CC2)n1C.Cl [Example 5, 2-tert-Butyl-4-{4-[3-(4-methyl-5-methyl-4H-[1,2,4]triazol-3-ylsulfanyl)-propyl]-piperazin-1-yl}-6-trifluoromethyl-pyrimidine hydrochloride]
5 | 2384 | 3.5 | 134 | 469 | Cl.Cn1cnnc1SCCCN1CCN(c2cc(C(F)(F)F)nc(C(C)(C)C)n2)CC1 [Example 6, 2-tert-Butyl-4-{4-[3-(4-methyl-4H-[1,2,4]triazol-3-ylsulfanyl)-propyl]-piperazin-1-yl}-6-trifluoromethyl-pyrimidine hydrochloride]
6 | 1430 | 2.9 | 146 | 418 | Cl.Cn1cnnc1SCCCN1CCN(c2cc(C(F)F)nc(C(C)(C)C)n2)CC1 [Example 7, 2-tert-Butyl-4-{4-[3-(4-methyl-4H-[1,2,4]triazol-3-ylsulfanyl)-propyl]-piperazin-1-yl}-6-difluoromethyl-pyrimidine hydrochloride]
7 |  | 1.8 | 224 | 401 | Cc1nnc(SCCCN2CCN(c3cc(C(F)F)nc(C(C)(C)C)n3)CC2)n1C.Cl [Example 8, 2-tert-Butyl-4-{4-[3-(4-methyl-5-methyl-4H-[1,2,4]triazol-3-ylsulfanyl)-propyl]-piperazin-1-yl}-6-difluoromethyl-pyrimidine hydrochloride]

Row | Compound | Brain level [1] [ng/g] | Ki [2] [nM] | Selectivity [Ki(D2)/Ki(D3)] [2] | Ki [3] [nM]
8 | Cn1c(N)nnc1SCCCN1CCN(c2cc(C(C)(C)C)nc(C(C)(C)C)n2)CC1 [A*, reference compound] | 387 |  |  | 
9 | Cn1c(N)nnc1SCCCN1CCN(c2cc(C(F)(F)F)nc(C(C)(C)C)n2)CC1 [B*, reference compound] | 143 |  |  | 
10 | CCCc1cc(N2CCN(CCCSc3nncn3C)CC2)nc(C(C)(C)C)n1.O=C(O)/C=C/C(=O)O [Example 3, 2-tert-Butyl-4-{4-[3-(4-methyl-4H-[1,2,4]triazol-3-ylsulfanyl)-propyl]-piperazin-1-yl}-6-propyl-pyrimidine fumarate] | 1000 | 3.3 | 125 | 412
